Data from ChEMBL document CHEMBL1250481, “Isoxazole analogs of curcuminoids with highly potent multidrug-resistant antimycobacterial activity” (2010).
In brackets after ≈: the same amount, converted by molar mass. Activity calls are given as the source filed them. The rule behind the calls is not given here.

System: Mycobacterium tuberculosis
Experiment: Antimycobacterial activity against Mycobacterium tuberculosis H37Ra after 24 hrs by microtiter alamar blue assay
Assay type: functional

| SMILES | MIC |
| --- | --- |
| COc1cc(CCCCC(=O)CCc2ccc(O)c(OC)c2)ccc1O | 100 µg/mL (≈ 279 µM) |
| COc1cc(/C=C/c2cc(/C=C/c3ccc(OC(C)=O)c(OC)c3)on2)ccc1O | 1.56 µg/mL (≈ 3.83 µM) |
| COc1cc(/C=C/C(=O)CC(=O)/C=C/c2ccc(O)c(O)c2)ccc1O | 200 µg/mL (≈ 564 µM) |
| COc1cc(CCC(=O)CC(O)CCc2ccc(O)c(OC)c2)ccc1O (stereo not drawn) [HEXAHYDROCURCUMIN] | 100 µg/mL (≈ 267 µM) |
| COc1cc(/C=C/c2cc(/C=C/c3ccc(O)cc3)[nH]n2)ccc1O | 100 µg/mL (≈ 299 µM) |
| COc1cc(/C=C/C(=O)/C=C/CCc2ccc(O)c(OC)c2)ccc1O | 12.5 µg/mL (≈ 35.3 µM) |
| COc1cc(/C=C/c2cc(/C=C/c3ccc(O)c(OC)c3)n(-c3ccccc3)n2)ccc1O | 25 µg/mL (≈ 56.8 µM) |
| COc1cc(/C=C/C(=O)CC(=O)/C=C/c2ccc(OC(C)=O)c(OC)c2)ccc1OC(C)=O | 200 µg/mL (≈ 442 µM) |
| COc1cc(/C=C/C(=O)CC(=O)/C=C/c2ccc(O)c(OC)c2)ccc1O [CURCUMIN] | 100 µg/mL (≈ 271 µM) |
| COc1cc(/C=C/c2cc(/C=C/c3ccc(OC(C)=O)c(OC)c3)no2)ccc1O | 1.56 µg/mL (≈ 3.83 µM) |
| CCCCCOc1ccc(/C=C/c2cc(/C=C/c3ccc(O)c(OC)c3)no2)cc1OC | 6.25 µg/mL (≈ 14.4 µM) |
| O=C(/C=C/c1ccc(O)c(O)c1)CC(=O)/C=C/c1ccc(O)c(O)c1 [DIDEMETHYLCURCUMIN] | 100 µg/mL (≈ 294 µM) |
| Oc1ccc(/C=C/c2cc(/C=C/c3ccc(O)cc3)[nH]n2)cc1 | 25 µg/mL (≈ 82.1 µM) |
| CCCOc1ccc(/C=C/C(=O)CC(=O)/C=C/c2ccc(O)c(OC)c2)cc1OC | 25 µg/mL (≈ 60.9 µM) |
| CO[C@H]1/C=C/O[C@@]2(C)Oc3c(C)c(O)c4c(O)c(c(/C=N/N5CCN(C)CC5)c(O)c4c3C2=O)NC(=O)/C(C)=C\C=C\[C@H](C)[C@H](O)[C@@H](C)[C@@H](O)[C@@H](C)[C@H](OC(C)=O)[C@@H]1C [RIFAMPIN] | 0.004 µg/mL (≈ 0.00486 µM) |
| CC(=O)Oc1ccc(/C=C/C(=O)CC(=O)/C=C/c2ccc(O)cc2)cc1 | 25 µg/mL (≈ 71.4 µM) |
| COc1cc(/C=C/c2cc(/C=C/c3ccc(O)c(OC)c3)on2)ccc1O | 1.56 µg/mL (≈ 4.27 µM) |
| COc1cc(/C=C/C(O)=C/C(=O)/C=C/c2ccc(O)cc2)ccc1O [DEMETHOXYCURCUMIN] | 50 µg/mL (≈ 148 µM) |
| COc1cc(/C=C/C(=O)CC(=O)CCc2ccc(O)c(OC)c2)ccc1O | 200 µg/mL (≈ 540 µM) |
| COc1cc(CCC(=O)CC(=O)CCc2ccc(O)c(OC)c2)ccc1O [TETRAHYDROCURCUMIN] | 50 µg/mL (≈ 134 µM) |
| COc1cc(/C=C/C(=O)CC(=O)/C=C/c2ccc(OCCO)c(OC)c2)ccc1OCCO | 200 µg/mL (≈ 438 µM) |
| CCCOc1ccc(/C=C/C(=O)CC(=O)/C=C/c2ccc(OCCC)c(OC)c2)cc1OC | 200 µg/mL (≈ 442 µM) |
| COc1cc(/C=C/C=C/C(=O)CCc2ccc(O)c(OC)c2)ccc1O | 25 µg/mL (≈ 70.5 µM) |
| COc1cc(/C=C/c2cc(/C=C/c3ccc(OC(C)=O)c(OC)c3)on2)ccc1OC(C)=O | 1.56 µg/mL (≈ 3.47 µM) |
| C=CCOc1ccc(/C=C/C(=O)CC(=O)/C=C/c2ccc(O)c(OC)c2)cc1OC | 100 µg/mL (≈ 245 µM) |

| SMILES | MIC |
| --- | --- |
| COc1ccc(/C=C/c2cc(/C=C/c3ccc(OC)c(OC)c3)on2)cc1OC | 0.39 µg/mL (≈ 0.991 µM) |
| COc1cc(/C=C/c2cc(CCc3ccc(O)c(OC)c3)on2)ccc1O | 6.25 µg/mL (≈ 17 µM) |
| COc1cc(/C=C/c2cc(/C=C/c3ccc(OC)c(OC)c3)no2)ccc1O | 0.09 µg/mL (≈ 0.237 µM) |
| COc1cc(/C=C/C(=O)CC(=O)/C=C/c2ccc(OC(C)=O)c(OC)c2)ccc1O | 100 µg/mL (≈ 244 µM) |
| Oc1ccc(/C=C/c2cc(/C=C/c3ccc(O)c(O)c3)on2)cc1O | 200 µg/mL (≈ 593 µM) |
| COc1cc(/C=C/C(=O)CC(=O)/C=C/c2ccc(OC(C)=O)cc2)ccc1O | 50 µg/mL (≈ 131 µM) |
| CC(=O)Oc1ccc(/C=C/C(=O)CC(=O)/C=C/c2ccc(OC(C)=O)cc2)cc1 | 25 µg/mL (≈ 63.7 µM) |
| COc1cc(/C=C/C(=O)CC(=O)/C=C/c2ccc(OCCO)c(OC)c2)ccc1O | 200 µg/mL (≈ 485 µM) |
| O=C(/C=C/c1ccc(O)cc1)CC(=O)/C=C/c1ccc(O)c(O)c1 | 200 µg/mL (≈ 617 µM) |
| COc1cc(/C=C/C(=O)CC(=O)/C=C/c2ccc(OC(C)=O)cc2)ccc1OC(C)=O | 100 µg/mL (≈ 237 µM) |
| O=C(/C=C/c1ccc(O)cc1)CC(=O)/C=C/c1ccc(O)cc1 [BISDEMETHOXYCURCUMIN] | 25 µg/mL (≈ 81.1 µM) |
| COc1cc(/C=C/C(=O)CC(=O)/C=C/c2ccc(OC)c(OC)c2)ccc1O | 50 µg/mL (≈ 131 µM) |
| CCCCCOc1ccc(/C=C/C(=O)CC(=O)/C=C/c2ccc(O)c(OC)c2)cc1OC | 12.5 µg/mL (≈ 28.5 µM) |
| CCCCCOc1ccc(/C=C/c2cc(/C=C/c3ccc(O)c(OC)c3)on2)cc1OC | 0.39 µg/mL (≈ 0.895 µM) |
| CCCCCOc1ccc(/C=C/C(=O)CC(=O)/C=C/c2ccc(OCCCCC)c(OC)c2)cc1OC | 100 µg/mL (≈ 197 µM) |
| NNC(=O)c1ccncc1 [ISONIAZID] | 0.06 µg/mL (≈ 0.438 µM) |
| Oc1ccc(/C=C/c2cc(/C=C/c3ccc(O)cc3)on2)cc1 | 12.5 µg/mL (≈ 40.9 µM) |
| COc1cc(/C=C/C=C/C(=O)/C=C/c2ccc(O)c(OC)c2)ccc1O | 12.5 µg/mL (≈ 35.5 µM) |
| COc1cc(/C=C/c2cc(/C=C/c3ccc(OC)c(OC)c3)on2)ccc1O | 0.78 µg/mL (≈ 2.06 µM) |
| NC[C@H]1O[C@H](O[C@H]2[C@H](O)[C@@H](O[C@H]3O[C@H](CO)[C@@H](O)[C@H](N)[C@H]3O)[C@H](N)C[C@@H]2N)[C@H](O)[C@@H](O)[C@@H]1O [KANAMYCIN] | 2.5 µg/mL (≈ 5.16 µM) |
| COc1cc(CCc2cc(CCc3ccc(O)c(OC)c3)on2)ccc1O | 100 µg/mL (≈ 271 µM) |
| COc1ccc(/C=C/C(=O)CC(=O)/C=C/c2ccc(OC)c(OC)c2)cc1OC [TETRAMETHOXYCURCUMIN] | 100 µg/mL (≈ 252 µM) |
| COc1cc(CC/C=C/C(=O)CCc2ccc(O)c(OC)c2)ccc1O | 25 µg/mL (≈ 70.1 µM) |
| COc1cc(/C=C/c2cc(/C=C/c3ccc(O)c(OC)c3)[nH]n2)ccc1O [CURCUMIN PYRAZOLE] | 200 µg/mL (≈ 549 µM) |
| COc1cc(/C=C/C(=O)CC(=O)/C=C/c2ccc(O)cc2)ccc1OC(C)=O | 50 µg/mL (≈ 131 µM) |

System: Mycobacterium tuberculosis
Experiment: Antimycobacterial activity against Mycobacterium tuberculosis H37Ra at 200 ug/ml after 24 hrs by microtiter alamar blue assay
Assay type: functional, organism-based

| SMILES | MIC |
| --- | --- |
| C=CCOc1ccc(/C=C/C(=O)CC(=O)/C=C/c2ccc(OCC=C)c(OC)c2)cc1OC | inactive |
| COc1ccc(/C=C/c2cc(/C=C/c3ccc(OC)cc3)on2)cc1 | inactive |
| CCCCCOc1ccc(/C=C/c2cc(/C=C/c3ccc(OCCCCC)c(OC)c3)on2)cc1OC | inactive |
| COc1cc(CCC(O)CC(O)CCc2ccc(O)c(OC)c2)ccc1O (stereo not drawn) | inactive |

System: Mycobacterium tuberculosis
Experiment: Antimycobacterial activity against Pan-sensitive Mycobacterium tuberculosis H37Ra after 24 hrs by microtiter alamar blue assay
Assay type: functional

| SMILES | MIC |
| --- | --- |
| CCCCCOc1ccc(/C=C/c2cc(/C=C/c3ccc(O)c(OC)c3)no2)cc1OC | 6.25 µg/mL (≈ 14.4 µM) |
| COc1cc(/C=C/c2cc(/C=C/c3ccc(OC)c(OC)c3)no2)ccc1O | 0.09 µg/mL (≈ 0.237 µM) |
| CCCCCOc1ccc(/C=C/c2cc(/C=C/c3ccc(O)c(OC)c3)on2)cc1OC | 0.39 µg/mL (≈ 0.895 µM) |
| COc1cc(/C=C/c2cc(/C=C/c3ccc(OC)c(OC)c3)on2)ccc1O | 0.78 µg/mL (≈ 2.06 µM) |
